Assay results from PMC9286045 (Journal of Peptide Science, 2021).
“And” between values parts separate entries of the source, which are not always exact repeats. Equal values may be shown once. Read-outs that look alike come from different tables or passages of the source. Numbered stars: 1 amine (or outer) side, 2 acyl side, 3 side chain; on linkers, the order of the positions; unused ones are H or OH. Bridge positions count the residues as written; N and C are the ends. Square brackets hold non-standard residues; d marks the D form. Peptide text beside a SMILES is read from it. Abu(4-yl) = O=C([C@H](CC[*:3])N[*:1])[*:2]; X1 = O=C([C@@H](O)CS[*:2])[*:1]; X2 = O=C(CCC[*:2])[*:1]

What was measured:
uterus = settings: cited from earlier work
[1] = test system: OXT-receptor compartment of the potassium depolarized rat myometrium; assay: Oil-immersion (stopped-transport) and washout time–response experiments on myometrium strips; settings: for Cumulative clearance k r + κ / k r (transport rate constant between receptor compartment and aqueous medium) / κ Observed (irreversible clearance rate constant in the receptor compartment): K+-depolarized rat myometrium strip ex vivo, 30°C, arithmetic mean ± SD of computation runs; for Cumulative clearance k r + κ: washout decay phase; for k r (transport rate constant between receptor compartment and aqueous medium): from combined oil-immersion and washout data; for κ Observed (irreversible clearance rate constant in the receptor compartment): high potassium Ringer medium (Ca2+, Mg2+ 0.5 mM), oil-immersion decay phase, isometric tension, nonlinear regression; for κ (N) − κ (D): κ-difference of coherent N & D pairs, value shared by both peptides of the pair, C1,6OT/DC1,6OT pair uses predicted κ
Source text: (§1) Female virgin Sprague–Dawley rats (body weight approximately 200 g) in natural oestrus (detected by vaginal smears) were sacrificed by decapitation, both uterus horns were dissected and the perimetrium was pulled off. Their middle sections (approximately 15 mm) were longitudinally cut into 3‐ to 4‐mm strips; the endometrium (the inward layer of the horns) was removed by scraping. In average, three strips of each animal (31 rats in total) were used in the experiments.
(§2) A stripe was mounted in an adapted annealed organ chamber (17 mm × 65 mm) with a ventilation inlet tube containing 10‐ml Munsick medium (see above) and attached to an isometric force transducer. The basic tension was adjusted to 10 ± 0.2 mN (1 gf, gram‐force). Measurements were carried out at 30°C under continuous ventilation with Carbogen gas (25% O2 + 5% CO2). […] Each strip used for stimulation by a single peptide (for concentration of stimulating agents, cf. Table 2). Oil‐immersion and washout experiments were carried out on different strips from the same animal. Stimulation runs (two to four per strip) for each peptide were repeated on strips of different rat uteri.
(§3) Tonic contraction of the depolarized myometrium strips in a high potassium Ringer organ bath medium[46] (concentration of Ca^2+ and of Mg^2+: 0.5 mM) was elicited by roughly equipotent concentrations of single peptides around their D 2 values (the concentration causes the half of the maximally attainable contraction in oestrogen‐dominated myometrium). After reaching a steady‐state level (stimulation phase), the medium was exchanged by a low viscosity paraffin oil (oil‐immersion phase) or alternatively by the peptide‐free bath medium (washout phase). The time‐tension profiles of the strip were recorded by an isometric force transducer (Statham strain gauge UC3).
(§4) We employed here its modified version focused on the comparison of clearance and transport rate constants (Figure 2). It consists virtually of two distribution spaces: the receptor compartment (subscript r; see Section 4) and the external aqueous tissue medium (w). The rate of mass transport of agents through the tissue‐medium interface (transport constants k r , k w ) is directly proportional to the rate constant of diffusion k (dimension: volume/time) and inversely proportional to the respective compartment volume V r , V w : for the receptor compartment k r = k/V r , for the medium k w = k/V w . The constant κ relates to the (irreversible) clearance rate from the receptor compartment (dimension: time^−1). The rate equations determining the time response of the peptide concentrations in the corresponding compartments (c r , c w ) are then (1a) c˙w=−kcw−cr/Vw, (1b) c˙r=kcw−cr/Vr−κcr, wherein dotted symbols denote first derivatives with respect to time t: x˙≡dx/dt . • In the stimulation phase, concentration c w is expected to be constant, c w = c 0 (and c˙w=0 ) within the time interval of stimulation; the integration of Equation 1b yields (2) crt=cr,∞1−e^−kr+κt, where c r,∞ is a steady state value of c r , (3) cr,∞≡limt→∞crt=c0kr/kr+κ.
(§5) • In the wash‐out decay phase, the concentration in the external medium (c w ) is kept zero by a quick perifusion; c r,∞ is the initial value (t = 0), i.e., a c r steady state value before termination of the stimulation phase, (4) crt=cr,∞e^−kr+κt.
(§6) The sum k r + κ stands for the cumulative clearance rate constant of the peptide in the receptor compartment. • The insertion of oil (oil‐immersion decay phase) reduces the volume V w to a small residual aqueous layer v w around the tissue; obviously, v w ≪ V w and the corresponding modified mass transport rate constant kw′=k/vw is very large, limvw→0kw′=∞ .

[2] = test system: OXT-receptor compartment of the potassium depolarized rat myometrium
Source text: as §1, §2, §3, §4, §5, §6

[3] = rats, cited from earlier work
[4] = human, in vivo; cited from earlier work
[5] = test system: OXT-receptor compartment of the potassium depolarized rat myometrium; assay: Fragmented inactivation model of GOT and DGOT (oil-immersion time–response data); format: in vitro ADME; settings: for κ AM (rate constant of residual clearance) / κ c (rate constant of ester hydrolysis [Glu(OMe)^4]‐X → [Glu^4]‐X): K+-depolarized rat myometrium, oil-immersion, arithmetic mean ± SD; for κ AM (rate constant of residual clearance): assumption κ A ≈ κ M, runs in parentheses; for κ c (rate constant of ester hydrolysis [Glu(OMe)^4]‐X → [Glu^4]‐X): nonlinear regression Equation 17, number of computation runs in parentheses, 95% confidence limits in < >; for Δκ AM: difference of mean values κ AM (GOT) − κ AM (DGOT), expected rate constant of N-terminal (aminopeptidase) splitting; for Estimates of κ: κ AM + κ c: sum of fragments
Source text: This is an alternative to model represented by Equation 12b, whereε A (t), ε M (t) are response fractions of the respective primary agents and of its active metabolite(s) (16a) ε˙At=−κc+κAεAt, (16b) ε˙Mt=κcεAt−κMεMt.
Figure 6 depicts the proposed reaction scheme.
Δ α = α M /α A is the standardised biological activity (e.g., in IU/mg). Exponential constants for GOT and DGOT were obtained by the nonlinear regression analysis using numeric procedures described above and are summarized in Table 3.

| Compound | Cumulative clearance k r + κ [1] | k r (transport rate constant between receptor compartment and aqueous medium) [1] | κ Observed (irreversible clearance rate constant in the receptor compartment) [1] | κ (N) − κ (D) [1] | also measured |
| --- | --- | --- | --- | --- | --- |
| [7‐glycine]‐oxytocin |  |  |  |  | ex vivo half‐life of uterotonic response as compared with oxytocin (uterus): considerably shorter half‐life |
| [6,1‐(2‐Amino‐4‐thiasuberic acid)]‐OXT [DC6OT] |  |  |  |  | Cumulative clearance k r + κ [2]: 0.147 ± 0.015 min⁻¹; κ Observed (irreversible clearance rate constant in the receptor compartment) [2]: 0.105 ± 0.008 min⁻¹ |
| CC[C@H](C)[C@@H]1NC(=O)[C@H](Cc2ccc(O)cc2)NC(=O)CCCSC[C@@H](C(=O)N2CCC[C@H]2C(=O)N[C@@H](CC(C)C)C(=O)NCC(N)=O)NC(=O)[C@H](CC(N)=O)NC(=O)[C@H](CCC(N)=O)NC1=O [DC1OT, [1,6‐(2‐Amino‐4‐thiasuberic acid)]‐OXT] (YIQNCPLG-NH2; linker N-5 via X2) | 0.160 ± 0.021 min⁻¹ | 0.097 ± 0.025 min⁻¹ | 0.102 ± 0.016 min⁻¹ | 0.060 min⁻¹ |  |
| CC[C@H](C)[C@@H]1NC(=O)[C@H](Cc2ccc(O)cc2)NC(=O)[C@@H](N)CSSC[C@@H](C(=O)N2CCC[C@H]2C(=O)N[C@@H](CC(C)C)C(=O)NNC(N)=O)NC(=O)[C@H](CC(N)=O)NC(=O)[C@H](CCC(N)=O)NC1=O [AOT, [9‐Azaglycine]‐OXT] | 0.278 ± 0.015 min⁻¹ | 0.158 ± 0.020 min⁻¹ | 0.118 ± 0.008 min⁻¹ | 0.076 min⁻¹ |  |
| CC[C@H](C)[C@@H]1NC(=O)[C@H](Cc2ccc(O)cc2)NC(=O)CCSSC[C@@H](C(=O)N2CCC[C@H]2C(=O)N[C@@H](CC(C)C)C(=O)NNC(N)=O)NC(=O)[C@H](CC(N)=O)NC(=O)[C@H](CCC(N)=O)NC1=O [DAOT, [1‐β‐mercaptopropionic acid, 9‐azaglycine]‐OXT] | 0.194 ± 0.033 min⁻¹ | 0.139 ± 0.044 min⁻¹ | 0.042 ± 0.015 min⁻¹ | 0.076 min⁻¹ |  |
| CC[C@H](C)[C@@H]1NC(=O)[C@H](Cc2ccc(O)cc2)NC(=O)CCSSC[C@@H](C(=O)N2CCC[C@H]2C(=O)N[C@@H](CC(C)C)C(=O)NCC(N)=O)NC(=O)[C@H](CC(N)=O)NC(=O)[C@H](CCC(=O)OC)NC1=O [DGOT, [1‐β‐mercaptopropionic acid, 4‐glutamic acid‐δ‐methylester]‐OXT] | 0.211 ± 0.027 min⁻¹ | 0.107 ± 0.034 min⁻¹ | 0.076 ± 0.018 min⁻¹ and 0.076 min⁻¹ | 0.092 min⁻¹ | κ AM (rate constant of residual clearance) [5]: 0.053 ± 0.014 (14) <0.045; 0.061> min^−1; κ c (rate constant of ester hydrolysis [Glu(OMe)^4]‐X → [Glu^4]‐X) [5]: 0.032 ± 0.011 (14) <0.025; 0.038> min^−1; Δκ AM [5]: 0.081 min⁻¹; Estimates of κ: κ AM + κ c [5]: 0.085 min⁻¹ |
| CC[C@H](C)[C@@H]1NC(=O)[C@H](Cc2ccc(O)cc2)NC(=O)[C@@H](N)CCCC[C@@H](C(=O)N2CCC[C@H]2C(=O)N[C@@H](CC(C)C)C(=O)NCC(N)=O)NC(=O)[C@H](CC(N)=O)NC(=O)[C@H](CCC(N)=O)NC1=O [C1,6OT, [1,6‐α′,α‐diaminosuberic acid]‐OXT] | 0.263 ± 0.009 min⁻¹ | 0.194 ± 0.011 min⁻¹ | 0.076 ± 0.005 min⁻¹ |  |  |
| CC[C@H](C)[C@@H]1NC(=O)[C@H](Cc2ccc(O)cc2)NC(=O)CCSSC[C@@H](C(=O)N2CCC[C@H]2C(=O)N[C@@H](CC(C)C)C(=O)NCC(N)=O)NC(=O)[C@H](CC(N)=O)NC(=O)[C@H](CCC(N)=O)NC1=O [DOT, [1‐β‐mercaptopropionic acid]‐OXT] | 0.176 ± 0.024 min⁻¹ | 0.149 ± 0.026 min⁻¹ | 0.049 ± 0.021 min⁻¹ | 0.088 min⁻¹ |  |

Further lines, with some results ahead:

| Cumulative clearance k r + κ [1] | k r (transport rate constant between receptor compartment and aqueous medium) [1] | κ Observed (irreversible clearance rate constant in the receptor compartment) [1] | κ (N) − κ (D) [1] | Compound | also measured |
| --- | --- | --- | --- | --- | --- |
| 0.272 ± 0.037 min⁻¹ | 0.116 ± 0.041 min⁻¹ | 0.162 ± 0.032 min⁻¹ | 0.060 min⁻¹ | CC[C@H](C)[C@@H]1NC(=O)[C@H](Cc2ccc(O)cc2)NC(=O)[C@@H](N)CCSC[C@@H](C(=O)N2CCC[C@H]2C(=O)N[C@@H](CC(C)C)C(=O)NCC(N)=O)NC(=O)[C@H](CC(N)=O)NC(=O)[C@H](CCC(N)=O)NC1=O [Peptide C1OT, [6,1‐Cystathionine]‐OXT] (H-[Abu(4-yl)]YIQNCPLG-NH2; thioether 1-6) |  |
| 0.254 ± 0.028 min⁻¹ | 0.137 ± 0.030 min⁻¹ | 0.137 ± 0.025 min⁻¹ | 0.088 min⁻¹ | CC[C@H](C)[C@@H]1NC(=O)[C@H](Cc2ccc(O)cc2)NC(=O)[C@@H](N)CSSC[C@@H](C(=O)N2CCC[C@H]2C(=O)N[C@@H](CC(C)C)C(=O)NCC(N)=O)NC(=O)[C@H](CC(N)=O)NC(=O)[C@H](CCC(N)=O)NC1=O [OXT, Oxytocin, reference compound] | half‐life ([3]; regardless of gender and reproductive cycle): 1.65 min; elimination rate constant ([3]; related to the half-life of 1.65 min): 0.6 min⁻¹; half‐life in the blood plasma [4]: 1.5 to 8 min |
| 0.289 ± 0.010 min⁻¹ | 0.139 ± 0.012 min⁻¹ | 0.141 ± 0.008 min⁻¹ |  | CC[C@H](C)[C@@H]1NC(=O)[C@H](Cc2ccc(O)cc2)NC(=O)[C@@H](O)CSSC[C@@H](C(=O)N2CCC[C@H]2C(=O)N[C@@H](CC(C)C)C(=O)NCC(N)=O)NC(=O)[C@H](CC(N)=O)NC(=O)[C@H](CCC(N)=O)NC1=O [HOT, [1‐(2‐Hydroxy‐3‐β‐mercaptopropanoic acid)]‐OXT] (YIQNCPLG-NH2; linker N-5 via X1) |  |
| 0.267 min⁻¹ | 0.108 min⁻¹ | 0.166 min⁻¹ | 0.092 min⁻¹ | CC[C@H](C)[C@@H]1NC(=O)[C@H](Cc2ccc(O)cc2)NC(=O)[C@@H](N)CSSC[C@@H](C(=O)N2CCC[C@H]2C(=O)N[C@@H](CC(C)C)C(=O)NCC(N)=O)NC(=O)[C@H](CC(N)=O)NC(=O)[C@H](CCC(=O)OC)NC1=O [GOT, [4‐Glutamic acid‐δ‐methylester]‐OXT] | κ AM (rate constant of residual clearance) [5]: 0.134 ± 0.025 (12) <0.132; 0.135> min^−1; κ c (rate constant of ester hydrolysis [Glu(OMe)^4]‐X → [Glu^4]‐X) [5]: 0.033 ± 0.012 (22) <0.028; 0.038> min^−1; Δκ AM [5]: 0.081 min⁻¹; Estimates of κ: κ AM + κ c [5]: 0.167 min⁻¹ |
